Data published in PMC11571207, “Stereorandomized Oncocins with Preserved Ribosome Binding and Antibacterial Activity” (Journal of Medicinal Chemistry, 2024).
Read-outs that look alike come from different tables or passages of the source. No end group written: not given here.

How the values were obtained:
P. aeruginosa PAO1 = experiment: microbe, parasite or virus in culture; conditions: for MIC P. aeruginosa PAO1: supplement CSV
Method in brief: (§1)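 Read-out was visible growth after MTT addition, the MIC being the lowest inhibitory peptide concentration. Bacteria grown to log phase in LB were exposed in MH medium to peptide from 64 μg/mL in twofold dilutions for 15-18h at 37°C.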

A. baumannii ATCC19606 = experiment: microbe, parasite or virus in culture; conditions: for MIC A. baumannii ATCC19606: supplement CSV
Method in brief: as §1

K. pneumoniae NCTC 418 = experiment: microbe, parasite or virus in culture; conditions: for MIC K. pneumoniae NCTC418: supplement CSV
Method in brief: as §1

S. aureus COL (MRSA) = experiment: microbe, parasite or virus in culture; conditions: for MIC S. aureus COL (MRSA): supplement CSV
Method in brief: as §1

E. coli W3110 = experiment: microbe, parasite or virus in culture; conditions: for MIC E. coli W3110: supplement CSV
Method in brief: as §1

[1] = system: P. aeruginosa PA14 4.13 (phoQ); conditions: for MIC P. aeruginosa PA14 4.13: supplement CSV
human red blood cells = experiment: Hemolysis assay, minimum hemolytic concentration
K. pneumoniae OXA-48 = experiment: microbe, parasite or virus in culture; conditions: for MIC K. pneumoniae OXA-48: supplement CSV
Method in brief: (§2)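 Minimal inhibitory concentrations come from broth microdilution in MH medium, with a top peptide concentration of 64 μg/mL halved serially.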

E. cloacae = experiment: microbe, parasite or virus in culture; conditions: for MIC E. cloacae: supplement CSV
Method in brief: as §2

[2] = system: P. aeruginosa PA14 2P4 (pmrB); experiment: microbe, parasite or virus in culture; conditions: for MIC P. aeruginosa PA14 2P4: supplement CSV
Method in brief: as §2

P. aeruginosa ZEM-1A = experiment: microbe, parasite or virus in culture
Method in brief: as §2

P. aeruginosa ZEM9A = experiment: microbe, parasite or virus in culture; conditions: for MIC P. aeruginosa ZEM9A: supplement CSV
Method in brief: as §2

P. aeruginosa PA14 = experiment: microbe, parasite or virus in culture; conditions: for MIC P. aeruginosa PA14: supplement CSV
Method in brief: as §2

[3] = system: P. aeruginosa PA14 4.18 (pmrB); conditions: for MIC P. aeruginosa PA14 4.18: supplement CSV
[4] = polymyxin B resistant strain, 12.5% MHB pH 7.4, 16–20 h at 37 °C
[5] = polymyxin B resistant strain, full MHB pH 7.4, 16–20 h at 37 °C

For “VDKPPYLPRPRPPRRIYNR [sr5Cterm-Onc] (VDKPPYLPRPRPPRRIYNR-NH2; also: residues 15-19 stereorandomized (1:1 L/D mixture))”, the “MIC P. aeruginosa, 12.5% MHB” value (P. aeruginosa PAO1; P. aeruginosa PAO1, 12.5% Müller–Hinton medium, 16–20 h at 37 °C) was 8 µg/mL, the “MIC P. aeruginosa, Full MHB” value (P. aeruginosa PAO1; P. aeruginosa PAO1, full Müller–Hinton medium, 16–20 h at 37 °C) was 64 µg/mL and the “MIC P. aeruginosa PAO1” value (P. aeruginosa PAO1; 12.5% MH pH 7.4) was 8 µg/mL. For the same sequence, the “MIC P. aeruginosa PAO1” value (P. aeruginosa PAO1; full MH pH 7.4) was 64 µg/mL, the “MIC A. baumannii, 12.5% MHB” value (A. baumannii ATCC19606; A. baumannii ATCC19606, 12.5% Müller–Hinton medium, 16–20 h at 37 °C) was 4 µg/mL and the “MIC A. baumannii, Full MHB” value (A. baumannii ATCC19606; A. baumannii ATCC19606, full Müller–Hinton medium, 16–20 h at 37 °C) was 32 µg/mL. For the same sequence, the “MIC A. baumannii ATCC19606” value (A. baumannii ATCC19606; 12.5% MH pH 7.4) was 4 µg/mL, the “MIC A. baumannii ATCC19606” value (A. baumannii ATCC19606; full MH pH 7.4) was 32 µg/mL and the “MIC K. pneumoniae, 12.5% MHB” value (K. pneumoniae NCTC 418; K. pneumoniae NCTC 418, 12.5% Müller–Hinton medium, 16–20 h at 37 °C) was 2 / 2 μg/mL. The “MIC K. pneumoniae, Full MHB” value (K. pneumoniae NCTC 418; K. pneumoniae NCTC 418, full Müller–Hinton medium, 16–20 h at 37 °C) was 2 / 2 μg/mL, the “MIC K. pneumoniae NCTC418” value (K. pneumoniae NCTC 418; 12.5% MH pH 7.4) was 2 µg/mL and the “MIC K. pneumoniae NCTC418” value (K. pneumoniae NCTC 418; full MH pH 7.4) was 2 µg/mL. The “MIC S. aureus, 12.5% MHB” value (S. aureus COL (MRSA); S. aureus COL (MRSA), 12.5% Müller–Hinton medium, 16–20 h at 37 °C) was greater than 16 µg/mL, the “MIC S. aureus, Full MHB” value (S. aureus COL (MRSA); S. aureus COL (MRSA), full Müller–Hinton medium, 16–20 h at 37 °C) was greater than 64 µg/mL and the “MIC S. aureus COL (MRSA)” value (S. aureus COL (MRSA); 12.5% MH pH 7.4) was greater than 16 µg/mL. For the same sequence, the “MIC S. aureus COL (MRSA)” value (S. aureus COL (MRSA); full MH pH 7.4) was greater than 64 µg/mL, the “MIC E. coli, 12.5% MHB” value (E. coli W3110; E. coli W3110, 12.5% Müller–Hinton medium, 16–20 h at 37 °C, broth microdilution) was 2 µg/mL and the “MIC E. coli, Full MHB” value (E. coli W3110; E. coli W3110, full Müller–Hinton medium, 16–20 h at 37 °C, broth microdilution) was 4 µg/mL. The “MIC E. coli W3110” value (E. coli W3110; 12.5% MH pH 7.4) was 2 µg/mL, the “MIC E. coli W3110” value (E. coli W3110; full MH pH 7.4) was 4 µg/mL and the “MIC P. aeruginosa PA14 4.13 (phoQ), 12.5% MHB” value [1, 4] was 8 µg/mL. For the same sequence, the “MIC P. aeruginosa PA14 4.13 (phoQ), full MHB” value [1, 5] was 64 µg/mL, the “MIC P. aeruginosa PA14 4.13” value ([1]; 12.5% MH pH 7.4) was 8 µg/mL and the “MIC P. aeruginosa PA14 4.13” value ([1]; full MH pH 7.4) was 64 µg/mL. For the same sequence, the “Haemolysis on hRBC, MHC” value (human red blood cells; 2.5% human red blood cells (final) in 10 mM phosphate, 150 mM NaCl, pH 7.4, 25 °C, 4 h, visual inspection) was greater than 1000 µg/mL, the “MHC human red blood cells” value (human red blood cells; supplement CSV) was greater than 1000 µg/mL and the “MIC K. pneumoniae OXA-48, 12.5% MHB” value (K. pneumoniae OXA-48; carbapenem-resistant, 12.5% MHB pH 7.4, 16–20 h at 37 °C) was 4 µg/mL. The “MIC K. pneumoniae OXA-48, full MHB” value (K. pneumoniae OXA-48; carbapenem-resistant, full MHB pH 7.4, 16–20 h at 37 °C) was 32 µg/mL, the “MIC K. pneumoniae OXA-48” value (K. pneumoniae OXA-48; 12.5% MH pH 7.4) was 4 µg/mL and the “MIC K. pneumoniae OXA-48” value (K. pneumoniae OXA-48; full MH pH 7.4) was 32 µg/mL. For the same sequence, the “MIC E. cloacae, 12.5% MHB” value (E. cloacae; 12.5% MHB pH 7.4, 16–20 h at 37 °C) was 1 µg/mL, the “MIC E. cloacae, full MHB” value (E. cloacae; full MHB pH 7.4, 16–20 h at 37 °C) was 32 µg/mL and the “MIC E. cloacae” value (E. cloacae; 12.5% MH pH 7.4) was 1 µg/mL. The “MIC E. cloacae” value (E. cloacae; full MH pH 7.4) was 32 µg/mL, the “MIC P. aeruginosa PA14 2P4 (pmrB), 12.5% MHB” value [2, 4] was 2 µg/mL and the “MIC P. aeruginosa PA14 2P4 (pmrB), full MHB” value [2, 5] was greater than 64 µg/mL. The “MIC P. aeruginosa PA14 2P4” value ([2]; 12.5% MH pH 7.4) was 2 µg/mL, the “MIC P. aeruginosa PA14 2P4” value ([2]; full MH pH 7.4) was greater than 64 µg/mL and the “MIC P. aeruginosa ZEM-1A, 12.5% MHB” value (P. aeruginosa ZEM-1A; clinical isolate, 12.5% MHB pH 7.4, 16–20 h at 37 °C, cells marked c: single measurement (in duplicates)) was 4 to 8 µg/mL. The “MIC P. aeruginosa ZEM-1A, full MHB” value (P. aeruginosa ZEM-1A; clinical isolate, full MHB pH 7.4, 16–20 h at 37 °C, cells marked c: single measurement (in duplicates)) was 64 µg/mL, the “MIC P. aeruginosa ZEM-1A” value (P. aeruginosa ZEM-1A; supplement CSV, 12.5% MH pH 7.4) was 4 to 8 µg/mL and the “MIC P. aeruginosa ZEM9A, 12.5% MHB” value (P. aeruginosa ZEM9A; clinical isolate, 12.5% MHB pH 7.4, 16–20 h at 37 °C) was 8 µg/mL. For the same sequence, the “MIC P. aeruginosa ZEM9A, full MHB” value (P. aeruginosa ZEM9A; clinical isolate, full MHB pH 7.4, 16–20 h at 37 °C) was greater than 64 µg/mL, the “MIC P. aeruginosa ZEM9A” value (P. aeruginosa ZEM9A; 12.5% MH pH 7.4) was 8 µg/mL and the “MIC P. aeruginosa ZEM9A” value (P. aeruginosa ZEM9A; full MH pH 7.4) was greater than 64 µg/mL. For the same sequence, the “MIC P. aeruginosa PA14, 12.5% MHB” value (P. aeruginosa PA14; 12.5% MHB pH 7.4, 16–20 h at 37 °C, two different duplicate MIC determinations) was 8 µg/mL, the “MIC P. aeruginosa PA14, full MHB” value (P. aeruginosa PA14; full MHB pH 7.4, 16–20 h at 37 °C, two different duplicate MIC determinations) was greater than 64 µg/mL and the “MIC P. aeruginosa PA14” value (P. aeruginosa PA14; 12.5% MH pH 7.4) was 8 µg/mL. For the same sequence, the “MIC P. aeruginosa PA14” value (P. aeruginosa PA14; full MH pH 7.4) was greater than 64 µg/mL, the “MIC P. aeruginosa PA14 4.18 (pmrB), 12.5% MHB” value [3, 4] was 8 µg/mL and the “MIC P. aeruginosa PA14 4.18 (pmrB), full MHB” value [3, 5] was 64 µg/mL. For the same sequence, the “MIC P. aeruginosa PA14 4.18” value ([3]; 12.5% MH pH 7.4) was 8 µg/mL and the “MIC P. aeruginosa PA14 4.18” value ([3]; full MH pH 7.4) was 64 µg/mL.
